From patent US12358907B2, “Substituted pyrrolidine amides III” (GRÜNENTHAL GMBH, priority 2019, dated 2025)
pIC50: −log10 of the molar value.

The molecules below were run against human glucocorticoid receptor (Homo sapiens (Human), UniProt P04150) (assay: Human glucocorticoid receptor (hGR) ligand-binding assay (3H-dexamethasone competition, IM9 cytosol)). Settings: read-out: % inhibition hGR at 1 μM.
Experimental: Preferably, the glucocortitcoid receptor extracted from cytosol of IM9 cells is used for competitive radioligand binding assays to calculate percentage inhibition of the binding of radiolabeled ligand 3H-dexamethasone at the human glucocorticoid receptor.
The human lymphoblast cell line IM9 (ATCC, Bethesda, MD) was cultivated in RPMI 1640 media containing 10% fetal bovine serum, penicillin (100 U/ml), streptomycin (100 μg/ml), and 2 mM L-glutamine at 37° and 7% CO2 in a humidified incubator. Cells were centrifuged for 10 minutes at 1500 g and were washed in PBS and repelleted. Cell were then resuspended in homogenization buffer consisting of: 10 mM TES, 10 mM sodium molybdate, 1 mM EDTA, pH 7.4, 20 mM 2-mercaptoethanol, and 10% glycerol. Disruption of the cells was performed by nitrogen cavitation using 2×15 minutes at 600 to 750 psi nitrogen in a N2 cavitator at 0° C. The cell preparation was then centrifuged at 27,000 g for 15 minutes, and the resultant supernatant (=cytosol of IM9 cells) was centrifuged at 103,000 g for 60 minutes at 4° C. The amount of protein in the supernatant fraction was determined using a BCA assay kit and aliquots were snap frozen in a dry ice-acetone bath and stored at −70° C. Competitive binding assays were done in duplicate in homogenization buffer with a total volume of 200 μl. To this end, 1 mg of IM9 cytosol, 0.05 μCi (1.5 nM) of 3H-dexamethasone and unlabeled Example compounds as competitor compounds at 1 μM were mixed. The reaction was stopped after incubation at 0° C. for 16 to 18 hours by the addition of 100 μl of a charcoal-dextran mixture (2% activated charcoal, 0.5% dextran in 10 mM Tris, 1 mM EDTA, pH 7.4). Another incubation step at 0° C. for 10 minutes followed before the samples were centrifuged for 5 minutes at 8200 g. 100 μl of the supernatant) was finally assayed for radioactivity by liquid scintillationspectrometry, and percentage inhibition of 3H-dexamethasone binding was calculated.

Chain of human glucocorticoid receptor (P04150 whole entry): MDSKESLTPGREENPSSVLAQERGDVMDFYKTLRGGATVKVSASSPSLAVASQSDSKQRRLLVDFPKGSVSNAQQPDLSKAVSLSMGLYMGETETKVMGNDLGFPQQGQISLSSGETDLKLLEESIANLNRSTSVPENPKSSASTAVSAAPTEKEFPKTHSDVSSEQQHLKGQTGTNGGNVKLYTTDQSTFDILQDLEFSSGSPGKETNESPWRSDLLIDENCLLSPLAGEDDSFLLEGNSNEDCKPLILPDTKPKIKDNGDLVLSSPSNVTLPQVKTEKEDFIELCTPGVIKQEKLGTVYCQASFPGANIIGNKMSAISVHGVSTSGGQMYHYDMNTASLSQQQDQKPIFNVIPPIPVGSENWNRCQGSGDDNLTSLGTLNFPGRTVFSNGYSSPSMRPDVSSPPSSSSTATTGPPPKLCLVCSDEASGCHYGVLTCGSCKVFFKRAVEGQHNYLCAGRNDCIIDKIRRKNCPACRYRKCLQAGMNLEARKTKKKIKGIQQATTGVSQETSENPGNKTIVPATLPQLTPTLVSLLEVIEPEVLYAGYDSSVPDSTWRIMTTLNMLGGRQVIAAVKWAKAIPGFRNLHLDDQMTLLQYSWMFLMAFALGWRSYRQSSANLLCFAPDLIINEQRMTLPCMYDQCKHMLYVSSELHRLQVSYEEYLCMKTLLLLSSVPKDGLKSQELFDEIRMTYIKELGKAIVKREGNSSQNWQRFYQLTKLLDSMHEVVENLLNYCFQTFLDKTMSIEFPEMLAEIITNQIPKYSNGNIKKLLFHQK

Compared with `O=C(N[C@@H]1[C@@H](c2ccccc2)N(c2ccc3c(cnn3-c3ccc(F)cc3)c2)C(=O)C12CC2)C1CC1` (racemic) [Example 3, N-[rac-(6R,7S)-5-[1-(4-Fluorophenyl)-1H-indazol-5-yl]-4-oxo-6-phenyl-5-azaspiro[2.4]heptan-7-yl]-cyclopropanecarboxylic acid amide], `Cn1cc(-n2ncc3cc(N4C(=O)C5(CC5)[C@H](NC(=O)C5CC5)[C@H]4c4ccccc4)ccc32)ccc1=O` (racemic) [Example 30, N-[rac-(6R,7S)-5-[1-(1-Methyl-6-oxo-1H-pyridin-3-yl)-1H-indazol-5-yl]-4-oxo-6-phenyl-5-azaspiro[2.4]heptan-7-yl]-cyclopropanecarboxylic acid amide] is lower in inhibition at 1 µM: 98% for the first, 27% for the second.

Compared with `Cn1cc(-n2ncc3cc(N4C(=O)C(C)(C)[C@@H](NC(=O)C(C)(F)F)[C@@H]4c4ccccc4)ccc32)ccc1=O` [Example 8, N-[(2S,3R)-4,4-Dimethyl-1-[1-(1-methyl-6-oxo-1H-pyridin-3-yl)-1H-indazol-5-yl]-5-oxo-2-phenyl-pyrrolidin-3-yl]-2,2-difluoro-propionamide], `Cn1cc(-n2ncc3cc(N4C(=O)C(C)(C)[C@H](NC(=O)C(C)(F)F)[C@H]4c4ccccc4)ccc32)ccc1=O` [Example 9, N-[(2R,3S)-4,4-Dimethyl-1-[1-(1-methyl-6-oxo-1H-pyridin-3-yl)-1H-indazol-5-yl]-5-oxo-2-phenyl-pyrrolidin-3-yl]-2,2-difluoro-propionamide] is higher in inhibition at 1 µM: 12% for the first, 86% for the second.

Compared with `CC(F)(F)C(=O)N[C@@H]1[C@@H](c2ccccc2)N(c2ccc3c(cnn3-c3ccc(F)cc3)c2)C(=O)C1(C)C` [Example 10, 2,2-Difluoro-N-[(2R,3S)-1-[1-(4-fluorophenyl)-1H-indazol-5-yl]-4,4-dimethyl-5-oxo-2-phenyl-pyrrolidin-3-yl]-propionamide], `Cn1ccc(C(=O)N[C@@H]2[C@@H](c3ccccc3)N(c3ccc4c(cnn4-c4ccc(=O)n(C)c4)c3)C(=O)C2(C)C)n1` [Example 12, N-[(2R,3S)-4,4-Dimethyl-1-[1-(1-methyl-6-oxo-1H-pyridin-3-yl)-1H-indazol-5-yl]-5-oxo-2-phenyl-pyrrolidin-3-yl]-1-methyl-1H-pyrazole-3-carboxylic acid amide] is lower in inhibition at 1 µM: 100% for the first, 83% for the second.

Going from `Cn1cc(-n2ncc3cc(N4C(=O)C(C)(C)[C@H](NC(=O)c5cnco5)[C@H]4c4ccccc4)ccc32)ccc1=O` [Example 13, N-[(2R,3S)-4,4-Dimethyl-1-[1-(1-methyl-6-oxo-1H-pyridin-3-yl)-1H-indazol-5-yl]-5-oxo-2-phenyl-pyrrolidin-3-yl]-oxazole-5-carboxylic acid amide] to `Cn1cc(-n2ncc3cc(N4C(=O)C(C)(C)[C@@H](NC(=O)c5cnco5)[C@@H]4c4ccccc4)ccc32)ccc1=O` [Example 21, N-[(2S,3R)-4,4-Dimethyl-1-[1-(1-methyl-6-oxo-1H-pyridin-3-yl)-1H-indazol-5-yl]-5-oxo-2-phenyl-pyrrolidin-3-yl]-oxazole-5-carboxylic acid amide], the inhibition at 1 µM rises from 20% to 22%.

Compared with `Cc1nc(C(=O)N[C@@H]2[C@@H](c3ccccc3)N(c3ccc4c(cnn4-c4ccc(=O)n(C)c4)c3)C(=O)C2(C)C)no1` [Example 14, N-[(2R,3S)-4,4-Dimethyl-1-[1-(1-methyl-6-oxo-1H-pyridin-3-yl)-1H-indazol-5-yl]-5-oxo-2-phenyl-pyrrolidin-3-yl]-5-methyl-[1,2,4]oxadiazole-3-carboxylic acid amide], `Cc1cc(C(=O)N[C@H]2[C@H](c3ccccc3)N(c3ccc4c(cnn4-c4ccc(=O)n(C)c4)c3)C(=O)C2(C)C)no1` [Example 22, N-[(2S,3R)-4,4-Dimethyl-1-[1-(1-methyl-6-oxo-1H-pyridin-3-yl)-1H-indazol-5-yl]-5-oxo-2-phenyl-pyrrolidin-3-yl]-5-methyl-isoxazole-3-carboxylic acid amide] is lower in inhibition at 1 µM: 84% for the first, 18% for the second.

First: Cn1cc(-n2ncc3cc(N4C(=O)C(C)(C)[C@H](NC(=O)c5cncs5)[C@H]4c4ccccc4)ccc32)ccc1=O [Example 15, N-[(2R,3S)-4,4-Dimethyl-1-[1-(1-methyl-6-oxo-1H-pyridin-3-yl)-1H-indazol-5-yl]-5-oxo-2-phenyl-pyrrolidin-3-yl]-thiazole-5-carboxylic acid amide]
Second: Cn1cc(-n2ncc3cc(N4C(=O)C(C)(C)[C@@H](NC(=O)c5cncs5)[C@@H]4c4ccccc4)ccc32)ccc1=O [Example 24, N-[(2S,3R)-4,4-Dimethyl-1-[1-(1-methyl-6-oxo-1H-pyridin-3-yl)-1H-indazol-5-yl]-5-oxo-2-phenyl-pyrrolidin-3-yl]-thiazole-5-carboxylic acid amide]
The inhibition at 1 µM of the first is higher: 87% for the first, 12% for the second.

Compared with `Cc1ncsc1C(=O)N[C@@H]1[C@@H](c2ccccc2)N(c2ccc3c(cnn3-c3ccc(=O)n(C)c3)c2)C(=O)C1(C)C` [Example 16, N-[(2R,3S)-4,4-Dimethyl-1-[1-(1-methyl-6-oxo-1H-pyridin-3-yl)-1H-indazol-5-yl]-5-oxo-2-phenyl-pyrrolidin-3-yl]-4-methyl-thiazole-5-carboxylic acid amide], `Cc1scnc1C(=O)N[C@@H]1[C@@H](c2ccccc2)N(c2ccc3c(cnn3-c3ccc(=O)n(C)c3)c2)C(=O)C1(C)C` [Example 18, N-[(2R,3S)-4,4-Dimethyl-1-[1-(1-methyl-6-oxo-1H-pyridin-3-yl)-1H-indazol-5-yl]-5-oxo-2-phenyl-pyrrolidin-3-yl]-5-methyl-thiazole-4-carboxylic acid amide] is lower in inhibition at 1 µM: 30% for the first, 29% for the second.

For `Cn1cc(-n2ncc3cc(N4C(=O)C(C)(C)[C@H](NC(=O)c5cscn5)[C@H]4c4ccccc4)ccc32)ccc1=O` [Example 17, N-[(2R,3S)-4,4-Dimethyl-1-[1-(1-methyl-6-oxo-1H-pyridin-3-yl)-1H-indazol-5-yl]-5-oxo-2-phenyl-pyrrolidin-3-yl]-thiazole-4-carboxylic acid amide], the inhibition at 1 µM was 80%.

These molecules were tested against glucocorticoid receptor (GAL4 DBD-GR) (Homo sapiens (Human), UniProt P04150) (assay: GR cell-based assays (GRE agonist / GRE antagonist), CHO-Gal4/GR luciferase reporter). Settings: CHO-Gal4/GR reporter cells, agonist mode (EC50) or antagonist mode against beclometasone (IC50), 6 hour incubation.
Chain of glucocorticoid receptor (GAL4 DBD-GR) (P04150 524-758): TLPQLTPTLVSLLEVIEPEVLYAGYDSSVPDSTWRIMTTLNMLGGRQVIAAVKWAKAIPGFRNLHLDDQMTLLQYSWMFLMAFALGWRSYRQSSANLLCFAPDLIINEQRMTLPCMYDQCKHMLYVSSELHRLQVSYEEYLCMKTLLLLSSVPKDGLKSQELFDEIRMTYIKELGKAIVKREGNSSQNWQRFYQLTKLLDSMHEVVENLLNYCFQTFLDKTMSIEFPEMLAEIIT
In short: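 CHO cells stably carrying GAL4 DBD-GR ligand-binding-domain fusion and a GAL4-UAS firefly luciferase reporter were treated in Opti-MEM with 8 half-log concentrations from 10 μM to 0.003 μM (0.5% DMSO, quadruplicates). Antagonist mode measured repression of beclomethasone-induced signal. Luminescence after lysis gave EC50 or IC50.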

`O=C(N[C@@H]1[C@@H](c2ccccc2)N(c2ccc3c(cnn3-c3ccc(F)cc3)c2)C(=O)[C@@H]1CC(F)F)C1CC1` [Example 132, N-((2R,3S,4R)-4-(2,2-difluoroethyl)-1-(1-(4-fluorophenyl)-1H-indazol-5-yl)-5-oxo-2-phenylpyrrolidin-3-yl)cyclopropanecarboxamide] and `O=C(N[C@@H]1[C@@H](c2ccccc2)N(c2ccc3c(cnn3-c3ccc(F)cc3)c2)C(=O)C12CCC2)C1CC1` [Example 135, N-((7R,8S)-6-(1-(4-fluorophenyl)-1H-indazol-5-yl)-5-oxo-7-phenyl-6-azaspiro[3.4]octan-8-yl)cyclopropanecarboxamid] cannot be ordered by pIC50: over 7.00 for the first, over 7.00 for the second.

Same assay, conditions: read-out: IC50 or EC50

Compared with `O=C(N[C@@H]1[C@@H](c2ccccc2)N(c2ccc3c(cnn3-c3ccc(F)cc3)c2)C(=O)C12CC2)C1CC1` (racemic) [Example 3, N-[rac-(6R,7S)-5-[1-(4-Fluorophenyl)-1H-indazol-5-yl]-4-oxo-6-phenyl-5-azaspiro[2.4]heptan-7-yl]-cyclopropanecarboxylic acid amide], `Cn1cc(C[C@@H]2C(=O)N(c3ccc4c(cnn4-c4ccc(F)cc4)c3)[C@H](c3ccccc3)[C@H]2NC(=O)C2CC2)cn1` [Example 139a, N-((2R,3S,4S)-1-(1-(4-fluorophenyl)-1H-indazol-5-yl)-4-((1-methyl-1H-pyrazol-4-yl)methyl)-5-oxo-2-phenylpyrrolidin-3-yl)cyclopropanecarboxamide] is lower in pIC50: over 7.00 for the first, 4.82 to 6.00 for the second.

First: Cc1noc(C[C@@H]2C(=O)N(c3ccc4c(cnn4-c4ccc(F)cc4)c3)[C@H](c3ccccc3)[C@H]2NC(=O)C2CC2)n1 [Example 138, N-((2R,3S,4S)-1-(1-(4-fluorophenyl)-1H-indazol-5-yl)-4-((3-methyl-1,2,4-oxadiazol-5-yl)methyl)-5-oxo-2-phenylpyrrolidin-3-yl)cyclopropanecarboxamide]
Second: Cn1cc(C[C@H]2C(=O)N(c3ccc4c(cnn4-c4ccc(F)cc4)c3)[C@H](c3ccccc3)[C@H]2NC(=O)C2CC2)cn1 [Example 139b, N-((2R,3S,4R)-1-(1-(4-fluorophenyl)-1H-indazol-5-yl)-4-((1-methyl-1H-pyrazol-4-yl)methyl)-5-oxo-2-phenylpyrrolidin-3-yl)cyclopropanecarboxamide]
The pIC50 of the first is higher: 6.00 to 7.00 for the first, 4.82 to 6.00 for the second. The first is the more potent here.

`O=C(N[C@@H]1[C@@H](c2ccccc2)N(c2ccc3c(cnn3-c3ccc(F)cc3)c2)C(=O)[C@@H]1Cc1nccs1)C1CC1` [Example 150, N-((2R,3S,4R)-1-(1-(4-fluorophenyl)-1H-indazol-5-yl)-5-oxo-2-phenyl-4-(thiazol-2-ylmethyl)pyrrolidin-3-yl)cyclopropanecarboxamide] and `C[C@@]1(c2ccc(Cl)s2)[C@@H](NC(=O)C2CC2)CC(=O)N1c1ccc2c(cnn2-c2ccc(F)cc2)c1` [Example 151, N-((2S,3S)-2-(5-chlorothiophen-2-yl)-1-(1-(4-fluorophenyl)-1H-indazol-5-yl)-2-methyl-5-oxopyrrolidin-3-yl)cyclopropanecarboxamide] fall in the same range of pIC50: 6.00 to 7.00 for the first, 6.00 to 7.00 for the second.
